# Data taken from US20260042764A1, “COMPOSITIONS AND METHODS FOR INHIBITION OF KRAS” (TheRas, Inc., priority 2022, published 2026).
# Biological target: T1, Avi-KRAS WT (1-169) GppNHp/RAF1 RBD-3xFLAG (52-151) (Homo sapiens, UniProt P01116)
# T1 construct: Avi-KRAS WT (1-169)
# Assay: Raf1-KRAS WT-GppNHP disruption HTRF assay (Biological Example 1)
# Type: binding
# Details: KRAS WT, GppNHp-loaded; class symbols
# In short: (§1)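 Compound disruption of KRAS-GppNHp/RAF1 RBD binding read by HTRF after two sequential 1 h room-temperature incubations (protein mix, then detection reagents), shaken at 700 rpm. Buffer Tris pH 7.5 with MgCl2, BSA, Tween and 10% DMSO; results given as percent activity relative to DMSO (100%).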
# T1 sequence (P01116 1-169 isoform P01116-2): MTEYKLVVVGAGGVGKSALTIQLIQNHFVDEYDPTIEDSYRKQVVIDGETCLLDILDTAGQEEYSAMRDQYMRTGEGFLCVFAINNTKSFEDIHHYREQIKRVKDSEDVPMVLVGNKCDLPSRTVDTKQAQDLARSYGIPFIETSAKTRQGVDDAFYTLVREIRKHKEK
row,Structure (SMILES),IC50
1,C=C(C)C(=O)N1CC[C@@H](N(C)c2nc(OC[C@@]34CCCN3C[C@H](F)C4)nc3c(F)c(-c4ccc(F)c5sc(N)c(C#N)c45)c(C(F)(F)F)cc23)[C@H]1C [Compound 671],100 to 1000 nM
2,C/C=C\C(=O)N1CC[C@@H](N(C)c2nc(OC[C@@]34CCCN3C[C@H](F)C4)nc3c(F)c(-c4ccc(F)c5sc(N)c(C#N)c45)c(C(F)(F)F)cc23)[C@H]1C [Compound 672],100 to 1000 nM
3,CC1c2cc(C(=O)N(C)C)nn2CCN1c1nc(OCC23CCCN2CC(F)C3)nc2c(F)c(-c3ccc(F)c4sc(N)c(C#N)c34)c(C(F)(F)F)cc12 (stereo not drawn) [Compound 701],> 10000 nM
4,CCN(c1nc(OCC23CCCN2CC(F)C3)nc2c(F)c(-c3ccc(F)c4sc(N)c(C#N)c34)c(C(F)(F)F)cc12)C1CCN(C(=O)c2ccncc2)C1 (stereo not drawn) [Compound 709],< 100 nM
5,CCN(c1nc(OC[C@@]23CCCN2C[C@H](F)C3)nc2c(F)c(-c3ccc(F)c4sc(N)c(C#N)c34)c(C(F)(F)F)cc12)[C@H]1CCN(C(=O)OC2CCN(C(C)=O)C2)C1 (stereo partly drawn) [Compound 711],< 100 nM
6,CCN(c1nc(OCC23CCCN2CC(F)C3)nc2c(F)c(-c3ccc(F)c4sc(N)c(C#N)c34)c(C(F)(F)F)cc12)C1CCN(C(=O)c2ncccn2)C1 (stereo not drawn) [Compound 712],< 100 nM

# Biological target: T2, Avi-KRAS G12D (1-169) GppNHp/RAF1 RBD-3xFLAG (52-151) (Homo sapiens, UniProt P01116, G12D)
# T2 construct: Avi-KRAS G12D (1-169)
# Assay: Raf1-KRAS G12D-GppNHP disruption HTRF assay (Biological Example 1)
# Type: binding
# Details: KRAS G12D, GppNHp-loaded; class symbols
# In short: as §1
# T2 sequence (P01116 1-169 isoform P01116-2 G12D): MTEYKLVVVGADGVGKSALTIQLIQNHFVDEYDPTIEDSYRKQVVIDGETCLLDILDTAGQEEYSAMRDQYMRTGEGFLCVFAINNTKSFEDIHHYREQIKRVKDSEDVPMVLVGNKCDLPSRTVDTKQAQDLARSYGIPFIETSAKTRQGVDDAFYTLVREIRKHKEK
row,Structure (SMILES),IC50
1,C=C(C)C(=O)N1CC[C@@H](N(C)c2nc(OC[C@@]34CCCN3C[C@H](F)C4)nc3c(F)c(-c4ccc(F)c5sc(N)c(C#N)c45)c(C(F)(F)F)cc23)[C@H]1C [Compound 671],100 to 1000 nM
2,C/C=C\C(=O)N1CC[C@@H](N(C)c2nc(OC[C@@]34CCCN3C[C@H](F)C4)nc3c(F)c(-c4ccc(F)c5sc(N)c(C#N)c45)c(C(F)(F)F)cc23)[C@H]1C [Compound 672],100 to 1000 nM
3,CC1c2cc(C(=O)N(C)C)nn2CCN1c1nc(OCC23CCCN2CC(F)C3)nc2c(F)c(-c3ccc(F)c4sc(N)c(C#N)c34)c(C(F)(F)F)cc12 (stereo not drawn) [Compound 701],1000 to 10000 nM
4,CCN(c1nc(OCC23CCCN2CC(F)C3)nc2c(F)c(-c3ccc(F)c4sc(N)c(C#N)c34)c(C(F)(F)F)cc12)C1CCN(C(=O)c2ccncc2)C1 (stereo not drawn) [Compound 709],< 100 nM
5,CCN(c1nc(OC[C@@]23CCCN2C[C@H](F)C3)nc2c(F)c(-c3ccc(F)c4sc(N)c(C#N)c34)c(C(F)(F)F)cc12)[C@H]1CCN(C(=O)OC2CCN(C(C)=O)C2)C1 (stereo partly drawn) [Compound 711],< 100 nM
6,CCN(c1nc(OCC23CCCN2CC(F)C3)nc2c(F)c(-c3ccc(F)c4sc(N)c(C#N)c34)c(C(F)(F)F)cc12)C1CCN(C(=O)c2ncccn2)C1 (stereo not drawn) [Compound 712],< 100 nM

# System: SW620 cells (KRAS G12V)
# Assay: Cell-based pERK HTRF assay in SW620 cell (Biological Example 4)
# Details: Homo sapiens, SW-620, SW620 (KRAS G12V) cells, pERK HTRF; class symbols
# In short: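 SW620 seeded in RPMI/10% FBS, next day dosed 4 h (top 1 μM, half-log, 9 pts, 0.25% DMSO). Lysed, pERK by d2/Eu cryptate HTRF, 4–24 h RT, 615 nm read.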
row,Structure (SMILES),IC50
1,C=C(C)C(=O)N1CC[C@@H](N(C)c2nc(OC[C@@]34CCCN3C[C@H](F)C4)nc3c(F)c(-c4ccc(F)c5sc(N)c(C#N)c45)c(C(F)(F)F)cc23)[C@H]1C [Compound 671],100 to 1000 nM
2,C/C=C\C(=O)N1CC[C@@H](N(C)c2nc(OC[C@@]34CCCN3C[C@H](F)C4)nc3c(F)c(-c4ccc(F)c5sc(N)c(C#N)c45)c(C(F)(F)F)cc23)[C@H]1C [Compound 672],< 100 nM
3,CCN(c1nc(OCC23CCCN2CC(F)C3)nc2c(F)c(-c3ccc(F)c4sc(N)c(C#N)c34)c(C(F)(F)F)cc12)C1CCN(C(=O)c2ccncc2)C1 (stereo not drawn) [Compound 709],< 100 nM
4,CCN(c1nc(OC[C@@]23CCCN2C[C@H](F)C3)nc2c(F)c(-c3ccc(F)c4sc(N)c(C#N)c34)c(C(F)(F)F)cc12)[C@H]1CCN(C(=O)OC2CCN(C(C)=O)C2)C1 (stereo partly drawn) [Compound 711],< 100 nM
5,CCN(c1nc(OCC23CCCN2CC(F)C3)nc2c(F)c(-c3ccc(F)c4sc(N)c(C#N)c34)c(C(F)(F)F)cc12)C1CCN(C(=O)c2ncccn2)C1 (stereo not drawn) [Compound 712],< 100 nM

# Same assay, conditions: SW620 (KRAS G12V) cells, pERK HTRF; class symbols
row,Structure (SMILES),IC50
1,CC1c2cc(C(=O)N(C)C)nn2CCN1c1nc(OCC23CCCN2CC(F)C3)nc2c(F)c(-c3ccc(F)c4sc(N)c(C#N)c34)c(C(F)(F)F)cc12 (stereo not drawn) [Compound 701],< 100 nM

# Biological target: T3, Avi-KRAS G12V (1-169) GppNHp/RAF1 RBD-3xFLAG (52-151) (Homo sapiens, UniProt P01116, G12V)
# T3 construct: Avi-KRAS G12V (1-169)
# Assay: Raf1-KRAS G12V-GppNHP disruption HTRF assay (Biological Example 1)
# Type: binding
# Details: KRAS G12V, GppNHp-loaded; class symbols
# In short: as §1
# T3 sequence (P01116 1-169 isoform P01116-2 G12V): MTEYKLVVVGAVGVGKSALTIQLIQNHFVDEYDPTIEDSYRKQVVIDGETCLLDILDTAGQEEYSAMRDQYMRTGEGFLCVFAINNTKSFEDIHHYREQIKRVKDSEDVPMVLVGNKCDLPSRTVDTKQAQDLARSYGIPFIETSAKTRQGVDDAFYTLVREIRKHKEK
row,Structure (SMILES),IC50
1,C=C(C)C(=O)N1CC[C@@H](N(C)c2nc(OC[C@@]34CCCN3C[C@H](F)C4)nc3c(F)c(-c4ccc(F)c5sc(N)c(C#N)c45)c(C(F)(F)F)cc23)[C@H]1C [Compound 671],100 to 1000 nM
2,C/C=C\C(=O)N1CC[C@@H](N(C)c2nc(OC[C@@]34CCCN3C[C@H](F)C4)nc3c(F)c(-c4ccc(F)c5sc(N)c(C#N)c45)c(C(F)(F)F)cc23)[C@H]1C [Compound 672],100 to 1000 nM
3,CC1c2cc(C(=O)N(C)C)nn2CCN1c1nc(OCC23CCCN2CC(F)C3)nc2c(F)c(-c3ccc(F)c4sc(N)c(C#N)c34)c(C(F)(F)F)cc12 (stereo not drawn) [Compound 701],1000 to 10000 nM
4,CCN(c1nc(OCC23CCCN2CC(F)C3)nc2c(F)c(-c3ccc(F)c4sc(N)c(C#N)c34)c(C(F)(F)F)cc12)C1CCN(C(=O)c2ccncc2)C1 (stereo not drawn) [Compound 709],< 100 nM
5,CCN(c1nc(OC[C@@]23CCCN2C[C@H](F)C3)nc2c(F)c(-c3ccc(F)c4sc(N)c(C#N)c34)c(C(F)(F)F)cc12)[C@H]1CCN(C(=O)OC2CCN(C(C)=O)C2)C1 (stereo partly drawn) [Compound 711],< 100 nM
6,CCN(c1nc(OCC23CCCN2CC(F)C3)nc2c(F)c(-c3ccc(F)c4sc(N)c(C#N)c34)c(C(F)(F)F)cc12)C1CCN(C(=O)c2ncccn2)C1 (stereo not drawn) [Compound 712],< 100 nM

# System: GP2d cells (KRAS G12D)
# Assay: Cell-based pERK HTRF assay in GP2d cell (Biological Example 2)
# Details: GP2d (KRAS G12D) cells, pERK HTRF; class symbols
# In short: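 60 min compound, 0.25% DMSO, 9-pt half-log curve from 1 μM or 100 nM; DMEM/10% FBS.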
row,Structure (SMILES),IC50
1,CC1c2cc(C(=O)N(C)C)nn2CCN1c1nc(OCC23CCCN2CC(F)C3)nc2c(F)c(-c3ccc(F)c4sc(N)c(C#N)c34)c(C(F)(F)F)cc12 (stereo not drawn) [Compound 701],< 100 nM

# Same assay, conditions: GP2d, GP2d (KRAS G12D) cells, pERK HTRF; class symbols
row,Structure (SMILES),IC50
1,C=C(C)C(=O)N1CC[C@@H](N(C)c2nc(OC[C@@]34CCCN3C[C@H](F)C4)nc3c(F)c(-c4ccc(F)c5sc(N)c(C#N)c45)c(C(F)(F)F)cc23)[C@H]1C [Compound 671],< 100 nM
2,C/C=C\C(=O)N1CC[C@@H](N(C)c2nc(OC[C@@]34CCCN3C[C@H](F)C4)nc3c(F)c(-c4ccc(F)c5sc(N)c(C#N)c45)c(C(F)(F)F)cc23)[C@H]1C [Compound 672],< 100 nM
3,CCN(c1nc(OCC23CCCN2CC(F)C3)nc2c(F)c(-c3ccc(F)c4sc(N)c(C#N)c34)c(C(F)(F)F)cc12)C1CCN(C(=O)c2ccncc2)C1 (stereo not drawn) [Compound 709],< 100 nM
4,CCN(c1nc(OC[C@@]23CCCN2C[C@H](F)C3)nc2c(F)c(-c3ccc(F)c4sc(N)c(C#N)c34)c(C(F)(F)F)cc12)[C@H]1CCN(C(=O)OC2CCN(C(C)=O)C2)C1 (stereo partly drawn) [Compound 711],< 100 nM
5,CCN(c1nc(OCC23CCCN2CC(F)C3)nc2c(F)c(-c3ccc(F)c4sc(N)c(C#N)c34)c(C(F)(F)F)cc12)C1CCN(C(=O)c2ncccn2)C1 (stereo not drawn) [Compound 712],< 100 nM

# Biological target: T4, Avi-KRAS G12R (1-169) GppNHp/RAF1 RBD-3xFLAG (52-151) (Homo sapiens, UniProt P01116, G12R)
# T4 construct: Avi-KRAS G12R (1-169)
# Assay: Raf1-KRAS G12R-GppNHP disruption HTRF assay (Biological Example 1)
# Type: binding
# Details: KRAS G12R, GppNHp-loaded; class symbols
# In short: as §1
# T4 sequence (P01116 1-169 isoform P01116-2 G12R): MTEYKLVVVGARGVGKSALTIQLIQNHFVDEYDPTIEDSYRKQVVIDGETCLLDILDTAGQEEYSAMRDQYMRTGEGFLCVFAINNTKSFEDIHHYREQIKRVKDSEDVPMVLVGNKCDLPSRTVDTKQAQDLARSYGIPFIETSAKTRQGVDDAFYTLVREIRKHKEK
row,Structure (SMILES),IC50
1,C=C(C)C(=O)N1CC[C@@H](N(C)c2nc(OC[C@@]34CCCN3C[C@H](F)C4)nc3c(F)c(-c4ccc(F)c5sc(N)c(C#N)c45)c(C(F)(F)F)cc23)[C@H]1C [Compound 671],100 to 1000 nM
2,C/C=C\C(=O)N1CC[C@@H](N(C)c2nc(OC[C@@]34CCCN3C[C@H](F)C4)nc3c(F)c(-c4ccc(F)c5sc(N)c(C#N)c45)c(C(F)(F)F)cc23)[C@H]1C [Compound 672],100 to 1000 nM
3,CC1c2cc(C(=O)N(C)C)nn2CCN1c1nc(OCC23CCCN2CC(F)C3)nc2c(F)c(-c3ccc(F)c4sc(N)c(C#N)c34)c(C(F)(F)F)cc12 (stereo not drawn) [Compound 701],1000 to 10000 nM
4,CCN(c1nc(OCC23CCCN2CC(F)C3)nc2c(F)c(-c3ccc(F)c4sc(N)c(C#N)c34)c(C(F)(F)F)cc12)C1CCN(C(=O)c2ccncc2)C1 (stereo not drawn) [Compound 709],< 100 nM
5,CCN(c1nc(OC[C@@]23CCCN2C[C@H](F)C3)nc2c(F)c(-c3ccc(F)c4sc(N)c(C#N)c34)c(C(F)(F)F)cc12)[C@H]1CCN(C(=O)OC2CCN(C(C)=O)C2)C1 (stereo partly drawn) [Compound 711],< 100 nM
6,CCN(c1nc(OCC23CCCN2CC(F)C3)nc2c(F)c(-c3ccc(F)c4sc(N)c(C#N)c34)c(C(F)(F)F)cc12)C1CCN(C(=O)c2ncccn2)C1 (stereo not drawn) [Compound 712],< 100 nM
